“Also recorded” adds a separate entry of the source.

A short description of this test: Binding to phosphatidylinositol beads (PIP beads), biotinylated peptide detected with streptavidin-HRP/TMB. The note with it: biotinylated peptide at final concentration of 100 μM, two hours at room temperature, absorbance 595 nm. As to the method: Sedimented suspensions of PIP beads™ were obtained from Molecular Probes. The beads are supplied as 10 nanomoles of bound phosphoinositide per milliliter of sedimented suspension. PIP beads were pelleted by centrifugation at low speed in a Beckman Coulter Microfuge. Pelleted beads were washed in wash-binding buffer (0.5% NP-40 in phosphate-buffered saline, 1 ml, 3×5 minutes) and centrifuged at low speed following each wash. After washing, pelleted beads were resuspended in an equal volume of Wash/Binding buffer. 100 μl of bead suspension was used for each binding reaction. Biotinylated chlorotoxin was diluted in wash-binding buffer, added to each phosphatidylinositol bead suspension at a final concentration of 100 μM and allowed to incubate for two hours at room temperature. Following incubation with chlorotoxin, the bead suspensions were washed in Wash/Binding buffer (1 ml, 3×5 minutes) and centrifuged at low speed after each wash. Streptavidin horseradish peroxidase (Vector Labs) was diluted 1:1000 in wash-binding buffer, 100 μl of this solution was added to each of the phosphatidylinositol bead suspensions, and allowed to incubate […] at room temperature. Following incubation with streptavidin, bead suspensions were washed thoroughly in Wash/Binding buffer (1 ml, 5×10 minutes) and centrifuged at low speed after each wash. Immediately prior to use, a 1:1 mixture of TMB substrate (Pierce) was prepared, 100 μl of this solution was added to each reaction, and allowed to incubate at room temperature for up to thirty minutes. After incubation with substrate, bead suspensions were pelleted by centrifugation, supernatants were transferred to a 96-well plate and absorbance (λ=595 nm) was obtained using BioRad microplate reader and microplate manager software.
In order to confirm the identify of the minimal binding sequences within the alpha and beta peptides, each of the two peptides was incubated with different species of phosphatidylinositols as set forth in Example 1.
For the substance KGRGKSY [beta-domain peptide], the “binding to different species of phosphatidylinositols” value (“binding to different species” below) was “binds to multiple species of phosphatidylinositols; also recorded: bound to all of the same species of phosphatidylinositols as did chlorotoxin”.

With TDHQMAR [alpha-domain peptide], the “binding to different species” value is on record as “no binding activity”.

Take chlorotoxin: the “binding to different species” value is given as “binding of chlorotoxin to different phosphatidylinositols”.

Values taken from patent US20070275902A1, “Treatment of Phosphatidylinositol Phospholipid Disorders” (TRANSMOLECULAR, INC., priority 2003, published 2007).
